Like-named read-outs stand apart in the source and are kept apart here.
Tests used:
Type in all cases: in vivo, SCID mice
Ki67 = Ki67 immunohistochemistry in PC3 tumors (Compound 2); conditions: 5 mg/kg oral QD for 6 days, 2 hours after last dose
PC3 tumors = assay: Antitumor activity of Compound 2 in PC3 human prostate cancer xenograft model; conditions: for tumor volume reduction vs vehicle: Day 30
pAKT (S473) = pAKT (S473) in PC3 tumors, MSD (Compound 2); conditions: Mus musculus; for inhibition at 0.1 mg/kg: 0.1 mg/kg single oral dose; for inhibition at 0.3 mg/kg: 0.3 mg/kg single oral dose; for inhibition at 10 mg/kg: 10 mg/kg single oral dose
pS6RP = pS6RP in PC3 tumors, MSD (Compound 2); conditions: Mus musculus; for inhibition at 0.1 mg/kg: 0.1 mg/kg single oral dose; for inhibition at 0.3 mg/kg: 0.3 mg/kg single oral dose
pS6 = pS6 in PC3 tumors, MSD (Compound 1); conditions: for pS6 inhibition in tumor: through 24 hours
Method: The plasma and tumor samples were collected at various time points following compound administration as described.
Mice were monitored daily for clinical signs and body weight changes. At the end of the study, mice were euthanized and plasma and tumor samples were collected for PK/PD determination. PD markers, pS6 and pAkt, were measured using MSD technology.
After the last measurement, the experiment was terminated by taking the plasma and tumor samples for PK and PD measurements. Compound concentrations in plasma and tumor were determined by LC-MS/MS. PD markers, pS6 and pAkt, were measured using MSD technology.
At predetermined time points following dosing, mice were euthanized and plasma and tumor samples were collected for PK/PD determination. Compound concentrations in plasma and tumor were determined by LC-MS/MS. PD markers, pS6 and pAkt, were measured using Mesoscale technology.
For Mesoscale discovery assays, tissue samples were homogenized in lysis buffer containing protease and phosphatase inhibitors and centrifuged for 10 minutes at 1200 rpm at 4° C. Supernatants were sonicated for 1 minute at 4° C., aliquoted and stored at −80° C. Protein concentrations in samples were determined using BCA Protein Assay Reagent Kit (Thermo Scientific). Meso Scale Discovery kits and protocol for measuring the pS6 and pAkt/Total Akt kits were used. MSD 96-well plates spotted with pS6, pAkt/total Akt were blocked with blocking solution for 5 minutes followed by a wash with wash buffer. […] of tumor lysates were added to each well and incubated for 2 hours followed by a 4× wash with a wash buffer. Detection antibody was added to each well and incubated in the dark for 1 hour at 4° C. The plates were then washed and bound antigen was read using an MSD SECTOR™ instrument.

[1] = 0.5 h, read-out: PD Marker Inhibition (%) pAKT (S473)
[2] = 1 h, read-out: PD Marker Inhibition (%) pAKT (S473)
[3] = 3 h, read-out: PD Marker Inhibition (%) pAKT (S473)
[4] = 6 h, read-out: PD Marker Inhibition (%) pAKT (S473)
[5] = 10 h, read-out: PD Marker Inhibition (%) pAKT (S473)
[6] = 24 h, read-out: PD Marker Inhibition (%) pAKT (S473)
[7] = 0.5 h, read-out: PD Marker Inhibition (%) pS6RP
[8] = 1 h, read-out: PD Marker Inhibition (%) pS6RP
[9] = 3 h, read-out: PD Marker Inhibition (%) pS6RP
[10] = 6 h, read-out: PD Marker Inhibition (%) pS6RP
[11] = 10 h, read-out: PD Marker Inhibition (%) pS6RP
[12] = 24 h, read-out: PD Marker Inhibition (%) pS6RP

For `CCN1C(=O)CNc2ncc(-c3ccc(-c4nc[nH]n4)nc3C)nc21` [Compound 2, 1-ethyl-7-(2-methyl-6-(1H-1,2,4-triazol-3-yl)pyridin-3-yl)-3,4-dihydropyrazino[2,3-b]pyrazin-2(1H)-one], the “reduction in the number of proliferating cells (Ki67) vs vehicle” value (Ki67) was 93%, the “tumor volume reduction vs vehicle” value (PC3 tumors; 0.5 mg/kg BID) was 57% and the “tumor volume reduction vs vehicle” value (PC3 tumors; 1 mg/kg BID) was 66%. For the same molecule, the “tumor volume reduction vs vehicle” value (PC3 tumors; 1 mg/kg QD) was 55%, the tumor inhibition (PC3 tumors; 1 mg/kg QD, Day 30 (BID/QD study)) was “the same as 0.5 mg/kg BID” and the “tumor volume reduction vs vehicle” value (PC3 tumors; 2 mg/kg QD) was 63%. The “tumor volume reduction vs vehicle” value (PC3 tumors; 5 mg/kg QD) was 76%, the lowest efficacious dose (PC3 tumors; BID, approximately 65% tumor volume inhibition) was 1 mg/kg and the inhibition at 0.1 mg/kg (pAKT (S473); [1]) was 50%. For the same molecule, the inhibition at 0.1 mg/kg (pAKT (S473); [2]) was 25.1%, the inhibition at 0.1 mg/kg (pAKT (S473); [3]) was 15.3% and the inhibition at 0.1 mg/kg (pAKT (S473); [4]) was 14.2%. The inhibition at 0.1 mg/kg (pAKT (S473); [5]) was 2.5%, the inhibition at 0.1 mg/kg (pAKT (S473); [6]) was 0% and the inhibition at 0.3 mg/kg (pAKT (S473); [1]) was 77.2%. The inhibition at 0.3 mg/kg (pAKT (S473); [2]) was 70.7%, the inhibition at 0.3 mg/kg (pAKT (S473); [3]) was 52.9% and the inhibition at 0.3 mg/kg (pAKT (S473); [4]) was 42.2%. It also gave an inhibition at 0.3 mg/kg (pAKT (S473); [5]) of 23%, an inhibition at 0.3 mg/kg (pAKT (S473); [6]) of 9.6% and an inhibition at 1 mg/kg (pAKT (S473); 1 mg/kg single dose, through 10 hours, read-out: inhibition of pAKT (S473) in tumor) of ~65%. The inhibition at 1 mg/kg (pAKT (S473); 1 mg/kg single oral dose, 1 h, read-out: PD Marker Inhibition (%) pAKT (S473)) was 79.6%, the inhibition at 1 mg/kg (pAKT (S473); 1 mg/kg single oral dose, 3 h, read-out: PD Marker Inhibition (%) pAKT (S473)) was 65.1% and the inhibition at 1 mg/kg (pAKT (S473); 1 mg/kg single oral dose, 6 h, read-out: PD Marker Inhibition (%) pAKT (S473)) was 69.9%. It also gave an inhibition at 1 mg/kg (pAKT (S473); 1 mg/kg single oral dose, 10 h, read-out: PD Marker Inhibition (%) pAKT (S473)) of 65.5%, an inhibition at 1 mg/kg (pAKT (S473); 1 mg/kg single oral dose, 24 h, read-out: PD Marker Inhibition (%) pAKT (S473)) of 19% and an inhibition at 10 mg/kg (pAKT (S473); [2]) of 87.6%. The inhibition at 10 mg/kg (pAKT (S473); [3]) was 88.3%, the inhibition at 10 mg/kg (pAKT (S473); [4]) was 86.9% and the inhibition at 10 mg/kg (pAKT (S473); [5]) was 86%. For the same molecule, the inhibition at 10 mg/kg (pAKT (S473); [6]) was 79.8%, the inhibition at 0.1 mg/kg (pS6RP; [7]) was 45.7% and the inhibition at 0.1 mg/kg (pS6RP; [8]) was 38.2%. For the same molecule, the inhibition at 0.1 mg/kg (pS6RP; [9]) was 27.2%, the inhibition at 0.1 mg/kg (pS6RP; [10]) was 23.3% and the inhibition at 0.1 mg/kg (pS6RP; [11]) was 17.6%. It also gave an inhibition at 0.1 mg/kg (pS6RP; [12]) of 0%, an inhibition at 0.3 mg/kg (pS6RP; [7]) of 69.8% and an inhibition at 0.3 mg/kg (pS6RP; [8]) of 79.6%. The inhibition at 0.3 mg/kg (pS6RP; [9]) was 73.5%, the inhibition at 0.3 mg/kg (pS6RP; [10]) was 67.3% and the inhibition at 0.3 mg/kg (pS6RP; [11]) was 57.9%. The inhibition at 0.3 mg/kg (pS6RP; [12]) was 33.3%, the inhibition at 1 mg/kg (pS6RP; 1 mg/kg single dose, through 10 hours, read-out: inhibition of pS6RP in tumor) was ~80% and the inhibition at 1 mg/kg (pS6RP; 1 mg/kg single oral dose, 1 h, read-out: PD Marker Inhibition (%) pS6RP) was 84.6%. For the same molecule, the inhibition at 1 mg/kg (pS6RP; 1 mg/kg single oral dose, 3 h, read-out: PD Marker Inhibition (%) pS6RP) was 89.5%, the inhibition at 1 mg/kg (pS6RP; 1 mg/kg single oral dose, 6 h, read-out: PD Marker Inhibition (%) pS6RP) was 82.8% and the inhibition at 1 mg/kg (pS6RP; 1 mg/kg single oral dose, 10 h, read-out: PD Marker Inhibition (%) pS6RP) was 78.7%. The inhibition at 1 mg/kg (pS6RP; 1 mg/kg single oral dose, 24 h, read-out: PD Marker Inhibition (%) pS6RP) was 0%, the inhibition at 10 mg/kg (pS6RP; 10 mg/kg single dose, through 24 hours, read-out: inhibition of both PD markers (pS6RP, pAKT (S473))) was ≥ 80% and the inhibition at 10 mg/kg (pS6RP; 10 mg/kg single oral dose, 1 h, read-out: PD Marker Inhibition (%) pS6RP) was 85.3%. The inhibition at 10 mg/kg (pS6RP; 10 mg/kg single oral dose, 3 h, read-out: PD Marker Inhibition (%) pS6RP) was 91.3%, the inhibition at 10 mg/kg (pS6RP; 10 mg/kg single oral dose, 6 h, read-out: PD Marker Inhibition (%) pS6RP) was 93.5% and the inhibition at 10 mg/kg (pS6RP; 10 mg/kg single oral dose, 10 h, read-out: PD Marker Inhibition (%) pS6RP) was 93.7%. The inhibition at 10 mg/kg (pS6RP; 10 mg/kg single oral dose, 24 h, read-out: PD Marker Inhibition (%) pS6RP) was 93.2%.

With `CO[C@H]1CC[C@H](N2C(=O)CNc3ncc(-c4ccc(C(C)(C)O)nc4)nc32)CC1` [Compound 1, 7-(6-(2-hydroxypropan-2-yl)pyridin-3-yl)-1-((1r,4r)-4-methoxycyclohexyl)-3,4-dihydropyrazino-[2,3-b]pyrazin-2(1H)-one] the “inhibition of pS6” value (pS6; 0.3 mg/kg single dose, 0.5 h, data not shown) was 81%, the pS6 inhibition (pS6; 0.3 mg/kg single dose, up to 2 hours, data not shown) was “Approximately 80%” and the pS6 inhibition (pS6; 1 mg/kg single dose, up to 4 hours) was “Approximately 80%”. For the same molecule, the “PD Marker Inhibition (%) pS6” value (pS6; 1 mg/kg single oral dose, 0.5 h) was 80.8%, the “PD Marker Inhibition (%) pS6” value (pS6; 1 mg/kg single oral dose, 2 h) was 82.8% and the “PD Marker Inhibition (%) pS6” value (pS6; 1 mg/kg single oral dose, 4 h) was 78.6%. For the same molecule, the “PD Marker Inhibition (%) pS6” value (pS6; 1 mg/kg single oral dose, 6 h) was 53.1%, the “PD Marker Inhibition (%) pS6” value (pS6; 1 mg/kg single oral dose, 10 h) was 14.4% and the “PD Marker Inhibition (%) pS6” value (pS6; 1 mg/kg single oral dose, 24 h) was 20.6%. For the same molecule, the “inhibition of pS6 in tumors” value (pS6; 10 mg/kg QD 5 days, 24 hours after the last dose) was 22%, the “inhibition of pS6” value (pS6; 10 mg/kg single dose, up to 8 hours) was > 80% and the “PD Marker Inhibition (%) pS6” value (pS6; 10 mg/kg single oral dose, 1 h) was 79.5%. The “PD Marker Inhibition (%) pS6” value (pS6; 10 mg/kg single oral dose, 3 h) was 91.9%, the “PD Marker Inhibition (%) pS6” value (pS6; 10 mg/kg single oral dose, 8 h) was 91.2% and the “PD Marker Inhibition (%) pS6” value (pS6; 10 mg/kg single oral dose, 16 h) was 32.4%. For the same molecule, the “PD Marker Inhibition (%) pS6” value (pS6; 10 mg/kg single oral dose, 24 h) was 32.7%, the “PD Marker Inhibition (%) pS6” value (pS6; 10 mg/kg single oral dose, 48 h) was 39.5% and the “PD Marker Inhibition (%) pS6” value (pS6; 10 mg/kg single oral dose, 72 h) was 47.9%. For the same molecule, the “inhibition of pS6 levels” value (pS6; 25 mg/kg single dose, up to 24 hours) was > 80%, the “PD Marker Inhibition (%) pS6” value (pS6; 25 mg/kg single oral dose, 1 h) was 87.9% and the “PD Marker Inhibition (%) pS6” value (pS6; 25 mg/kg single oral dose, 3 h) was 95.1%. For the same molecule, the “PD Marker Inhibition (%) pS6” value (pS6; 25 mg/kg single oral dose, 8 h) was 92.3%, the “PD Marker Inhibition (%) pS6” value (pS6; 25 mg/kg single oral dose, 16 h) was 92.1% and the “PD Marker Inhibition (%) pS6” value (pS6; 25 mg/kg single oral dose, 24 h) was 83.7%. The “PD Marker Inhibition (%) pS6” value (pS6; 25 mg/kg single oral dose, 48 h) was 47.2%, the “PD Marker Inhibition (%) pS6” value (pS6; 25 mg/kg single oral dose, 72 h) was 68.3% and the “pS6 inhibition in tumor” value (pS6; 30 mg/kg single oral dose) was 78%. The “pS6 inhibition in tumor” value (pS6; 100 mg/kg single oral dose) was 91% and the “both PD markers (pS6, pAKT) in tumors” value (pS6; 25 and 50 mg/kg QD, 24 hr timepoint, data not shown) was “significantly inhibited”.
